In a melting point compilation (Tetko et al.; mined from patent text by program, amines drawn as free bases though some values may be those of a salt):

First: COc1ccc(Cn2c(C)cc3cnnc(Cl)c32)cc1
Second: COc1ccc(CN2CC(c3ccccc3)=C(O)C2=O)cc1
The melting point of the first is lower: 126 to 128 °C for the first, 195 to 198 °C for the second.

First: Cc1c(Br)cc(C(C)(C)C)c(O)c1-c1nc2cc(OC(F)(F)F)ccc2[nH]1
Second: O=C(O)c1cc(=O)c2cc(OC(F)(F)F)ccc2o1
The melting point of the first is higher: 235 to 236 °C for the first, 192 to 194 °C for the second.

First: O=C(O)CCC(=NO)c1ccc(-c2ccc(Cl)cc2)cc1
Second: CC[C@@H](c1ccccc1)N(Cc1ccc(C(=O)NCC(=O)O)cc1)S(=O)(=O)c1ccc(Cl)cc1
The melting point of the first is higher: 155 to 157 °C for the first, 136 to 139 °C for the second.

First: CCCCSc1cc(C(=O)OC)cc(S(N)(=O)=O)c1Oc1ccccc1
Second: COC(=O)CCc1cc2cc(C(=O)c3ccccc3)ccc2n1S(=O)(=O)c1ccccc1
The melting point of the first is higher: 122 to 123 °C for the first, 37 to 51 °C for the second.

First: N#Cc1ccc2oc(-c3ccc(O)cc3)cc(=O)c2c1
Second: N#Cc1cc(N)n(-c2c(Cl)cc(-c3ccc(C(F)(F)F)cc3)cc2Cl)n1
The melting point of the first is higher: 296 to 298 °C for the first, 195 to 199 °C for the second.

First: O=c1[nH]c(=O)n(C2CC(O)C(CO)O2)cc1C(Cl)=CI (stereo not given)
Second: CCn1c(C(=O)c2cc(C)cc(CCC#N)c2)c(C(C)C)c(=O)[nH]c1=O
The melting point of the first is lower: 109 to 111 °C for the first, 173 to 174 °C for the second.

Compared with `Cc1cccc(C2C(C#N)=C(C3CC3)Nc3n[nH]cc32)c1[N+](=O)[O-]` (stereo not given), `COC(=O)C(C#N)c1ccccc1[N+](=O)[O-]` (stereo not given) is lower in melting point: 265 °C for the first, 58 to 60 °C for the second.

First: CCC(CC)(NC(C)=O)c1ccc(CN2CCN(c3ccccc3)CC2)cc1
Second: CCN1CCN(C2=Nc3cc(Cl)ccc3Sc3ccccc32)CC1
The melting point of the first is higher: 139 to 140 °C for the first, 100 to 101 °C for the second.

First: CC1C(C)(C)C2CCc3cnoc3C2C1(C)C (stereo not given)
Second: CC1=C(NC=O)C(C)C(C)(C(C)C)C2=C1CC(C)(CI)O2 (stereo not given)
The melting point of the first is lower: 82.3 °C for the first, 145 to 147 °C for the second.

First: O=C(NC1CCCCC1)OC1c2nccnc2C(=O)N1c1ccc2ccc(Cl)nc2n1 (stereo not given)
Second: CCN1CCNC(=O)c2ccc(Nc3ncc(Cl)c(N[C@@H]4CCCC[C@H]4NS(C)(=O)=O)n3)cc21
The melting point of the first is higher: 264 °C for the first, 216 to 220 °C for the second.

First: COc1ccc2c(c1)C1=C(SCC3(CCN(CC(O)Cc4ccccc4)CC3)O1)C(=O)C2=O (stereo not given)
Second: CCOC(=O)COc1cccc(CN2C(=O)C3(COc4cc5c(cc43)CCO5)c3ccccc32)c1 (stereo not given)
The melting point of the first is higher: 106 °C for the first, 45 to 46 °C for the second.

First: O=C(Cc1ccc(Cl)cc1)c1cccc(S(=O)(=O)N2CCCCCC2)c1
Second: COC(=O)c1ccc(CN(C2CCCCC2C)S(=O)(=O)c2ccc(Cl)cc2)cc1 (stereo not given)
The melting point of the first is higher: 135 to 136 °C for the first, 93 to 95 °C for the second.

`NC1CCc2ccccc2C1NC(=O)OCc1ccccc1` (stereo not given) and `O=C(NCCc1ccccc1F)[C@@H]1Cc2ccccc2N1` cannot be ordered by melting point: 102 to 145 °C for the first, 135 °C for the second.

First: O=C(O)CCSc1ccc(CNC(=O)C2Cc3ccccc3N2S(=O)(=O)c2ccc(-c3cccc(C(F)(F)F)c3)cc2)cc1 (stereo not given)
Second: COC(=O)c1ccc(Cc2cc3cc(Cl)ccc3n2S(=O)(=O)c2ccc(C(C)C)cc2)cc1
The melting point of the first is lower: 77 to 81 °C for the first, 99 °C for the second.

First: CCOC(=O)c1cn2c3c(c(F)c(F)cc3c1=O)OCC2
Second: CCOC(=O)c1nc(N)sc1-c1nc2ccc(Cl)cn2c1C
The melting point of the first is higher: 265 to 266 °C for the first, 217 to 219 °C for the second.

Compared with `CCCCCCCCCCCCCCCCC12CCC3=C(CCc4cc(OC)ccc43)C1CCC2=O` (stereo not given), `COCCN1CCc2ccc(Nc3ncc(Cl)c(N[C@@H]4CCC[C@H]4NS(C)(=O)=O)n3)cc2CC1` (relative stereo) is higher in melting point: 54 to 56 °C for the first, 74 °C for the second.

First: Cc1oc(-c2ccccc2)nc1COc1ccc(COc2ccccc2CC(=O)O)cn1
Second: Cn1nc(-c2nc(C#Cc3ccccc3)c(N)nc2-c2ccccc2)ccc1=O
The melting point of the first is lower: 123 to 125 °C for the first, 234 to 236 °C for the second.

First: COC(=O)c1ccccc1S(=O)(=O)NC(=O)Nc1nnc(C)c(C)n1
Second: COC(=O)c1ccc(S(C)(=O)=O)c(-c2nccs2)c1Cl
The melting point of the first is higher: 150 to 151 °C for the first, 135 to 138 °C for the second.

First: CSC(Nc1cccnc1)=C(C#N)S(=O)(=O)c1ccc(Cl)cc1
Second: Cc1cc(Nc2ccnc(Nc3ccc(S(=O)(=O)N(C)C4CCC(F)(F)CC4)cc3)n2)ccc1F
The melting point of the first is higher: 181 to 182 °C for the first, 164 to 165 °C for the second.

Compared with `CC(C)(C#N)c1cc(CC#N)cc(C(C)(C)C#N)c1`, `CC(=O)Nc1occ(C(C)(C)C)c1C#N` is higher in melting point: 72 to 73 °C for the first, 135 °C for the second.

First: CCOC(=S)c1c(CC)nc(C)nc1NCCc1ccc(OC)c(OC)c1
Second: COc1cc(C)ccc1CNC(=O)C(=O)NCCc1ccc(C)cn1
The melting point of the first is lower: 52 to 53 °C for the first, 116 to 117 °C for the second.

Compared with `O=[N+]([O-])c1ccc(Oc2ccc(C34CC5CC(C3)CC(c3ccc(Oc6ccc([N+](=O)[O-])c(O)c6)cc3)(C5)C4)cc2)cc1O`, `Oc1ccc(C2=C(c3ccc(OC4CCCCO4)cc3)CCCc3cc(OC4CCCCO4)ccc32)cc1` (stereo not given) is higher in melting point: 118 to 122 °C for the first, 182 to 183 °C for the second.

First: CC1(C)CN(Cc2ccccc2)c2cc(Cl)cc(C(=O)NC3CN4CCC3CC4)c2O1 (stereo not given)
Second: COc1ccccc1C(=O)N1CCN(C(=O)CNC2CCN(Cc3ccccc3)CC2)C(c2ccc(Cl)c(Cl)c2)C1 (racemic)
The melting point of the first is higher: 174 to 175 °C for the first, 71 to 73 °C for the second.

First: COc1ccc(S(=O)(=O)C2SC(=O)NC2=O)cc1 (stereo not given)
Second: Nc1nc(Nc2ccc(S(N)(=O)=O)cc2)sc1C(=O)c1sc(Br)cc1Br
The melting point of the first is lower: 93 to 95 °C for the first, 254 to 255 °C for the second.

Compared with `CN1CCCc2cccc(CS(=O)c3nc4ccccc4[nH]3)c21` (stereo not given), `CC(C)n1c(=O)nc(-c2ccccc2)c2cc3c(cc21)OCO3` is higher in melting point: 112 to 113 °C for the first, 189 to 190 °C for the second.

Compared with `CC(O)COc1ccc(-c2ccc(C(CC3CCOCC3)c3ccc(S(=O)(=O)C4CC4)cc3)[nH]2)nc1` (stereo not given), `COC(=O)C(NS(=O)(=O)c1ccc(-c2ccc(NC(=O)c3cc4cc(OC)ccc4o3)cc2)cc1)C(C)C` (stereo not given) is higher in melting point: 116 to 118 °C for the first, 234 to 235 °C for the second.

First: CC(C)(C)OC(=O)NCCN1CC2CNCC(C1)O2
Second: CC(C)(C)OC(=O)NC1CCCOCC=CC2CC2(C(=O)NS(=O)(=O)C2CC2)NC(=O)C2CC(OC(=O)c3ccc(-c4ccccc4)cc3)CN2C1=O (stereo not given)
The melting point of the first is lower: 91 to 93 °C for the first, 160 to 162 °C for the second.

First: O=C(O)CCCCCCc1cncc2ccccc12
Second: O=C(O)CCCCCO/N=C/c1cccnc1
The melting point of the first is lower: 108 to 109 °C for the first, 117 °C for the second.

First: O=C(CSCc1ccc(Cl)cc1Cl)NO
Second: Nc1cc(=O)n(Cc2cccc(Cl)c2)[nH]1
The melting point of the first is lower: 116 °C for the first, 132 °C for the second.

First: CCC1(OC)CCc2c(C)c(O)c(C)c(C)c2O1 (stereo not given)
Second: Cc1cc(N)c(C)c2c1OC(C)(C)C2=O
The melting point of the first is lower: 96.5 to 98.5 °C for the first, 124 to 126 °C for the second.

First: COc1cc2c(cn1)CC(CC(=O)O)C=C2 (stereo not given)
Second: COc1ccc2sc(C(=O)O)nc2c1[N+](=O)[O-]
The melting point of the first is higher: 151 to 152 °C for the first, 140 to 142 °C for the second.

First: CC(C)(OCCN1C(=O)c2ccccc2C1=O)OCCN1C(=O)c2ccccc2C1=O
Second: C=Cc1ccc(ON2C(=O)c3ccccc3C2=O)cc1
The melting point of the first is higher: 139 to 141 °C for the first, 129 to 131 °C for the second.

First: CCOC(OCC)c1cc(NC(c2ccccc2)(c2ccccc2)c2ccccc2)c(F)c(C2CCC2)n1
Second: C[C@H](NP(=O)(Cc1ccccc1)Cc1ccccc1)C(=O)N1CCC[C@H]1C(=O)N[C@H](C)C(=O)OCc1ccccc1
The melting point of the first is higher: 121 to 122 °C for the first, 82 to 85 °C for the second.

Compared with `COC1CCN(C2CCN(c3ccc(NC(=O)c4cnn(-c5ccc(Cl)cc5)c4C)cc3C#N)CC2)CC1`, `COC(=O)CC1CCN(C(=O)C2CCN(c3ccc(C#N)cn3)CC2)CC1` is lower in melting point: 245 °C for the first, 112 to 115 °C for the second.

First: O=C1c2ccccc2C(=O)c2c(NCCc3ccc(O)cc3)ccc(NCCc3ccc(O)cc3)c21
Second: O=C1c2ccccc2C(=O)c2sc(-c3ccc([N+](=O)[O-])o3)nc21
The melting point of the first is lower: 240 to 242 °C for the first, > 300 °C for the second.

First: CC(=O)NC(C(=O)OCc1cc(C)cc(C)c1)C1c2ccccc2-c2ccccc21 (stereo not given)
Second: N#CCNC(=O)C1(NC(=O)c2ccc(N3CCN(C(=O)OCC4c5ccccc5-c5ccccc54)CC3)cc2)CCCCC1
The melting point of the first is lower: 162 to 164 °C for the first, 192 to 194 °C for the second.

First: O=C(O)[C@@H]1Cc2ccccc2C[C@H]1C(=O)O (relative stereo)
Second: CC(=O)Nc1nc(N)nc(C2CCC(c3ccccc3)CC2)n1 (stereo not given)
The melting point of the first is lower: 229 to 232 °C for the first, > 260 °C for the second.

First: CCc1nc2c(cnn2CC)c(NC2CCOCC2)c1CNC(=O)c1cccc(C(=O)NCc2ccc(OC)c(-c3cccc(CN4CCCN(C)CC4)c3)c2)c1
Second: CCCN(CCC)Cc1nc(-c2ncn3c2[C@@H]2CCCN2C(=O)c2cc(F)ccc2-3)no1
The melting point of the first is lower: 116 to 119 °C for the first, 222 to 225 °C for the second.

First: COc1ccc(NC(=O)CCCn2nnnc2C)cc1
Second: C#CCc1c(C)nc2c(OCc3c(C)cccc3NC(=O)C(C)=O)cccn12
The melting point of the first is lower: 132 to 134 °C for the first, 158 to 160 °C for the second.

First: Cc1c(-c2ccccc2)nnc(N(C)C)c1C
Second: Cc1cc(-c2cccc(C(F)(F)F)c2)c2nc(OCC(F)(F)F)nnc2c1
The melting point of the first is lower: 86 to 89 °C for the first, 140 to 141 °C for the second.

First: COc1cc2ncnc(N3CCC(C(C)CN4CCC(C)NS4(=O)=O)CC3)c2cc1OC (stereo not given)
Second: COc1cc2ncnc(NC3=CC(=O)C4(c5ccccc5)OC4C3=O)c2cc1OC (stereo not given)
The melting point of the first is lower: 172 to 175 °C for the first, 252 to 253 °C for the second.

First: CCOCn1c(C(=O)c2cc(C)cc(C)c2)c(C(C)C)c(=O)[nH]c1=O
Second: COC(=O)c1cc(S(C)(=O)=O)ccc1OCC(C)C
The melting point of the first is higher: 120 to 122 °C for the first, 76 to 81 °C for the second.

Compared with `Cc1cc(-c2ccc(Cl)c(Cl)c2)nc(-n2cnc(-c3ncc(S(N)(=O)=O)s3)c2)n1`, `CCc1nc2c(N)nc3cc(-c4ccc(F)nc4)cnc3c2n1CC(C)(C)O` is higher in melting point: 230 °C for the first, 250 to 251 °C for the second.

First: COC(=O)C1CCC2C3CCC4CC(O)CCC4(C)C3C(NC3CCCC3)CC12C (stereo not given)
Second: CN(C)c1ccc(NC(=O)N(C[C@H]2CC[C@H](CN(C(=O)Nc3ccc(N(C)C)cc3)C3CCCCC3)CC2)C2CCCCC2)cc1
The melting point of the first is higher: 143 to 145 °C for the first, 128 to 131 °C for the second.

First: CN(c1nc(N)no1)c1c(Cl)cccc1Cl
Second: CCOC(=O)C1=C(C)NC(c2scnc2C)=NC1c1ccc(F)cc1Cl (stereo not given)
The melting point of the first is higher: 177 to 178 °C for the first, 134 to 139 °C for the second.

Compared with `CC1C(c2ccc(Cl)cc2)SC(=O)N1C(=O)NN1CCCCC1` (stereo not given), `CSC(=C[N+](=O)[O-])NCCCOc1cccc(CN2CCCCC2)c1` is lower in melting point: 92 to 93 °C for the first, 68 to 69.5 °C for the second.

First: CC(C)OC(C)c1nnc(N)s1 (stereo not given)
Second: COC(=O)c1sc2cc(O)ccc2c1C
The melting point of the first is lower: 129 to 135 °C for the first, 174 to 176 °C for the second.

In the case of `C[C@H]1CN(c2ccccn2)[C@@H](C)CN1C1=c2ccccc2=NCN1c1ccccc1` (relative stereo), the melting point is reported as 68 to 70 °C.
